Results from US4618622A, “Sulfonates of hydroxycoumarins” (priority 1982, dated 1986).

Legend:
Monoaminoxidase A [1] = target: T1, Monoaminoxidase A (Rattus norvegicus, UniProt P21396); assay: biochemical; conditions: read-out: Monoaminoxidase inhibition IC50
T1 sequence (P21396 1-526): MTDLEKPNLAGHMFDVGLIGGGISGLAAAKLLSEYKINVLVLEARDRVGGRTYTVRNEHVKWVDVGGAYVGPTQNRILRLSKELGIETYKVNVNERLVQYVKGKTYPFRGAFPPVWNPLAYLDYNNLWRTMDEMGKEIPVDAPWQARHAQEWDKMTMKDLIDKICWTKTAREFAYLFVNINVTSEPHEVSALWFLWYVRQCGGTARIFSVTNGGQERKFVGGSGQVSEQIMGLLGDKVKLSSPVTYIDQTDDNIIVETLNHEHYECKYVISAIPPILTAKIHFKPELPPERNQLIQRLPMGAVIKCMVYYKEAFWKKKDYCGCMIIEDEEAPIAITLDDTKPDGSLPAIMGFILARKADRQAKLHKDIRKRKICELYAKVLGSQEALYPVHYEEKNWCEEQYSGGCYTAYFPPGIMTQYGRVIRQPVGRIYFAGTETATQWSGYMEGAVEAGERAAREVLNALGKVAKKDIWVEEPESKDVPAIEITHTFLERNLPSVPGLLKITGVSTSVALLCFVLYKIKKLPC
Method: Monoaminoxidase A is determined in dilute rat brain homogenate to which
1. various concentrations of the test substances and
2. ^14 C-tryptamine in a concentration of 0.4 μmol/liter are added. This mixture is incubated at 37° C. for 20 minutes, after which the reaction is terminated by means of aqueous 0.1N HCl, and the products are extracted with toluene scintillator (PPO+POPOP in toluene) and then determined. The blank value is determined in similar mixtures for an incubation time of t=0 minutes.
The mean inhibitory concentration (IC50) is calculated from the inhibitory values determined, in comparison with the control, at the various inhibitor concentrations, by means of a linear regression after logit-log transformation.

[2] = system: reserpine-induced hypothermia; assay: Antidepressant action: inhibition of reserpine-induced hypothermia (reserpine test); type: in vivo, mouse (male, Swiss strain); conditions: oral administration, 60 minutes before reserpine 2.15 mg/kg s.c.; mouse; temperature 2 hours after; read-out: Antidepressant action (mouse) ED50
Method: The test substances are administered orally, 60 minutes before the reserpine.

Monoaminoxidase A [3] = target: T1, Monoaminoxidase A; conditions: in words, known for the comparative substance; cited from earlier work

## C#CCN(C)Cc1ccccc1 [Pargyline, reference compound]
Monoaminoxidase A [1]
  IC50: 2 µM
[2]
  ED50: 48 mg/kg
Monoaminoxidase A [3]
  action mechanism (known): inhibition of monoaminoxidase A
